Source: patent US20220218852A1, “NOVEL RADIOLABELLED CXCR4-TARGETING COMPOUNDS FOR DIAGNOSIS AND THERAPY” (PROVINCIAL HEALTH SERVICES AUTHORITY, priority 2019, published 2022)
Like-named read-outs stand apart in the source and are kept apart here. Positions of bridges follow the written chain, without caps; N, C: chain ends. Non-standard residues stand in square brackets, D forms with d. Residues, ends and D or L forms follow the SMILES beside them. Groups on a side chain read outwards from the residue. *: point of attachment. DOTA = O=C(O)CN1CCN(CC(=O)O)CCN(CC(=O)*)CCN(CC(=O)O)CC1; 2Nal = N[C@@H](Cc1ccc2ccccc2c1)C(=O)O; Lys(iPr) = CC(C)NCCCC[C@H](N)C(=O)O

Tests used:
[1] = Biodistribution in PC3 tumor-bearing mice; assay type: in vivo; settings: male, NOD.Cg-Rag1^tm1MomII2rg^tm1Wjl/SzJ (NRG), mouse, iv, total radioactivity
Description: (§1) For Daudi, Z138, GRANTA519 and Jeko1 xenografts, male NOD.Cg-Rag1^tm1MomII2rg^tm1Wjl/SzJ (NRG) mice were subcutaneously inoculated on the left flank with 5×10^6 cells (100 μL; 1:1 ratio of PBS/Matrigel) and tumors were grown to a size of 200-500 mm^3. For PC-3 xenografts, male NOD.Cg-Rag1^tm1MomII2rg^tm1Wjl/SzJ (NRG) mice were subcutaneously inoculated on the left flank with 5×10^6 PC-3 cells (100 μL; 1:1 ratio of PBS/Matrigel) and tumors were grown to a size of 200-400 mm^3.
(§2) The mice were euthanized via CO2 inhalation while anesthetized with isoflurane. Tissues were harvested, washed in PBS, blotted dry, weighed, and measured on a Hidex AMG Automatic Gamma Counter.

[2] = test system: PC3 prostate adenocarcinoma xenografts; experiment: Biodistribution in PC3 tumor-bearing mice; assay type: in vivo
Description: as §1, §2

[3] = In vivo stability (plasma radio-HPLC) in male NRG mice; settings: 5 mins
From the text: Radiolabeled peptides (10-30 MBq) was intravenously injected into male NRG mice. After a 5-min, 24-hour or 120-hour uptake period, mice were sedated/euthanized, and blood was collected. The plasma was isolated and analyzed with analytical radio-HPLC following published procedures (Lin et al., Cancer Res. 2015, 75:387-393).

[4] = 1 h blocked (7.5 μg LY2510924 i.p.)

For `CC(C)NCCCC[C@@H]1NC(=O)[C@H](Cc2ccc(O)cc2)NC(=O)[C@H](Cc2ccccc2)NC(=O)CC[C@H](C(=O)N[C@@H](CCCCNC(C)C)C(=O)N[C@@H](CCCCNC(=O)[C@H](CCC(=O)O)NC(=O)[C@H](CCC(=O)O)NC(=O)[C@H](CCC(=O)O)NC(=O)CN2CCN(CC(=O)O)CCN(CC(=O)O)CCN(CC(=O)O)CC2)C(N)=O)NC(=O)CNC(=O)[C@H](Cc2ccc3ccccc3c2)NC(=O)[C@@H](CCCNC(=N)N)NC1=O` [[^68Ga]Ga-BL02, metal not drawn] (FY[Lys(iPr)][dR][2Nal]G[dE][Lys(iPr)]K([Glu-Glu-Glu-DOTA])-NH2; lactam N-7), the tissue uptake at 1 h ([1]; PC3 tumor, 1 h, read-out: Biodistribution PC3 (tumor)) was 1.83 %ID/g, the tissue uptake at 1 h ([1]; PC3 tumor, 1 h blocked (7.5 μg LY2510924 i.p.), read-out: Biodistribution PC3 (tumor)) was 0.75 %ID/g and the tissue uptake at 2 h ([1]; PC3 tumor, read-out: Biodistribution PC3 (tumor)) was 1.41 %ID/g. It also gave a tissue uptake at 1 h ([1]; adrenals, 1 h, read-out: Biodistribution Adrenals) of 0.18 %ID/g, a tissue uptake at 1 h ([1]; adrenals, 1 h blocked (7.5 μg LY2510924 i.p.), read-out: Biodistribution Adrenals) of 0.18 %ID/g and a tissue uptake at 2 h ([1]; adrenals, read-out: Biodistribution Adrenals) of 0.1 %ID/g. For the same compound, the tissue uptake at 1 h ([1]; blood, 1 h, read-out: Biodistribution Blood) was 0.33 %ID/g, the tissue uptake at 1 h ([1]; blood, 1 h blocked (7.5 μg LY2510924 i.p.), read-out: Biodistribution Blood) was 0.54 %ID/g and the tissue uptake at 2 h ([1]; blood, read-out: Biodistribution Blood) was 0.06 %ID/g. It also gave a tissue uptake at 1 h ([1]; bone, 1 h, read-out: Biodistribution Bone) of 0.12 %ID/g, a tissue uptake at 1 h ([1]; bone, 1 h blocked (7.5 μg LY2510924 i.p.), read-out: Biodistribution Bone) of 0.15 %ID/g and a tissue uptake at 2 h ([1]; bone, read-out: Biodistribution Bone) of 0.11 %ID/g. It also gave a tissue uptake at 1 h ([1]; brain, 1 h, read-out: Biodistribution Brain) of 0.01 %ID/g, a tissue uptake at 1 h ([1]; brain, 1 h blocked (7.5 μg LY2510924 i.p.), read-out: Biodistribution Brain) of 0.02 %ID/g and a tissue uptake at 2 h ([1]; brain, read-out: Biodistribution Brain) of 0.01 %ID/g. The tissue uptake at 1 h ([1]; fat, 1 h, read-out: Biodistribution Fat) was 0.2 %ID/g, the tissue uptake at 1 h ([1]; fat, 1 h blocked (7.5 μg LY2510924 i.p.), read-out: Biodistribution Fat) was 0.16 %ID/g and the tissue uptake at 2 h ([1]; fat, read-out: Biodistribution Fat) was 0.01 %ID/g. It also gave a tissue uptake at 1 h ([1]; heart, 1 h, read-out: Biodistribution Heart) of 0.14 %ID/g, a tissue uptake at 1 h ([1]; heart, 1 h blocked (7.5 μg LY2510924 i.p.), read-out: Biodistribution Heart) of 0.21 %ID/g and a tissue uptake at 2 h ([1]; heart, read-out: Biodistribution Heart) of 0.06 %ID/g. The tissue uptake at 1 h ([1]; intestine, 1 h, read-out: Biodistribution Intestine) was 0.18 %ID/g, the tissue uptake at 1 h ([1]; intestine, 1 h blocked (7.5 μg LY2510924 i.p.), read-out: Biodistribution Intestine) was 0.25 %ID/g and the tissue uptake at 2 h ([1]; intestine, read-out: Biodistribution Intestine) was 0.14 %ID/g. It also gave a tissue uptake at 1 h ([1]; kidney, 1 h, read-out: Biodistribution Kidney) of 3.6 %ID/g, a tissue uptake at 1 h ([1]; kidney, 1 h blocked (7.5 μg LY2510924 i.p.), read-out: Biodistribution Kidney) of 3.75 %ID/g and a tissue uptake at 2 h ([1]; kidney, read-out: Biodistribution Kidney) of 4.67 %ID/g. For the same compound, the tissue uptake at 1 h ([1]; liver, 1 h, read-out: Biodistribution Liver) was 0.55 %ID/g, the tissue uptake at 1 h ([1]; liver, 1 h blocked (7.5 μg LY2510924 i.p.), read-out: Biodistribution Liver) was 0.5 %ID/g and the tissue uptake at 2 h ([1]; liver, read-out: Biodistribution Liver) was 0.73 %ID/g. It also gave a tissue uptake at 1 h ([1]; lung, 1 h, read-out: Biodistribution Lung) of 0.5 %ID/g, a tissue uptake at 1 h ([1]; lung, 1 h blocked (7.5 μg LY2510924 i.p.), read-out: Biodistribution Lung) of 0.6 %ID/g and a tissue uptake at 2 h ([1]; lung, read-out: Biodistribution Lung) of 0.33 %ID/g. It also gave a tissue uptake at 1 h ([1]; muscle, 1 h, read-out: Biodistribution Muscle) of 0.08 %ID/g, a tissue uptake at 1 h ([1]; muscle, 1 h blocked (7.5 μg LY2510924 i.p.), read-out: Biodistribution Muscle) of 0.11 %ID/g and a tissue uptake at 2 h ([1]; muscle, read-out: Biodistribution Muscle) of 0.03 %ID/g. It also gave a tissue uptake at 1 h ([1]; pancreas, 1 h, read-out: Biodistribution Pancreas) of 0.1 %ID/g, a tissue uptake at 1 h ([1]; pancreas, 1 h blocked (7.5 μg LY2510924 i.p.), read-out: Biodistribution Pancreas) of 0.12 %ID/g and a tissue uptake at 2 h ([1]; pancreas, read-out: Biodistribution Pancreas) of 0.04 %ID/g. It also gave a tissue uptake at 1 h ([1]; spleen, 1 h, read-out: Biodistribution Spleen) of 0.28 %ID/g, a tissue uptake at 1 h ([1]; spleen, 1 h blocked (7.5 μg LY2510924 i.p.), read-out: Biodistribution Spleen) of 0.37 %ID/g and a tissue uptake at 2 h ([1]; spleen, read-out: Biodistribution Spleen) of 0.25 %ID/g. For the same compound, the tissue uptake at 1 h ([1]; stomach, 1 h, read-out: Biodistribution Stomach) was 0.05 %ID/g, the tissue uptake at 1 h ([1]; stomach, 1 h blocked (7.5 μg LY2510924 i.p.), read-out: Biodistribution Stomach) was 0.06 %ID/g and the tissue uptake at 2 h ([1]; stomach, read-out: Biodistribution Stomach) was 0.06 %ID/g. It also gave a tissue uptake at 1 h ([1]; testes, 1 h, read-out: Biodistribution Testes) of 0.18 %ID/g, a tissue uptake at 1 h ([1]; testes, 1 h blocked (7.5 μg LY2510924 i.p.), read-out: Biodistribution Testes) of 0.35 %ID/g and a tissue uptake at 2 h ([1]; testes, read-out: Biodistribution Testes) of 0.06 %ID/g. The “Ratio Tumor: Blood” value ([2]; 1 h) was 5.74, the “Ratio Tumor: Bone” value ([2]; 1 h) was 15.68 and the “Ratio Tumor: Liver” value ([2]; 1 h) was 3.31. For the same compound, the “Ratio Tumor: Lung” value ([2]; 1 h) was 3.71, the “Ratio Tumor: Muscle” value ([2]; 1 h) was 23.74 and the “Ratio Tumor: Spleen” value ([2]; 1 h) was 6.62. For the same compound, the “Ratio Tumor: Blood” value [2, 4] was 1.56, the “Ratio Tumor: Bone” value [2, 4] was 6.16 and the “Ratio Tumor: Liver” value [2, 4] was 1.62. For the same compound, the “Ratio Tumor: Lung” value [2, 4] was 1.36, the “Ratio Tumor: Muscle” value [2, 4] was 7.68 and the “Ratio Tumor: Spleen” value [2, 4] was 2.16. The “Ratio Tumor: Blood” value ([2]; 2h) was 25.33, the “Ratio Tumor: Bone” value ([2]; 2h) was 13.96 and the “Ratio Tumor: Liver” value ([2]; 2h) was 1.99. For the same compound, the “Ratio Tumor: Lung” value ([2]; 2h) was 4.36, the “Ratio Tumor: Muscle” value ([2]; 2h) was 55.01 and the “Ratio Tumor: Spleen” value ([2]; 2h) was 5.63. For the same compound, the “% Intact Peptide” value [3] was >99%.
